Consider 22 compounds from ChEMBL document CHEMBL3991601, “The target landscape of clinical kinase drugs” (Science, 2017).

Assay [1] concerns the target T1, Succinate--CoA ligase [ADP-forming] subunit beta, mitochondrial (Homo sapiens, UniProt Q9P2R7).
T1 sequence (Q9P2R7 whole entry): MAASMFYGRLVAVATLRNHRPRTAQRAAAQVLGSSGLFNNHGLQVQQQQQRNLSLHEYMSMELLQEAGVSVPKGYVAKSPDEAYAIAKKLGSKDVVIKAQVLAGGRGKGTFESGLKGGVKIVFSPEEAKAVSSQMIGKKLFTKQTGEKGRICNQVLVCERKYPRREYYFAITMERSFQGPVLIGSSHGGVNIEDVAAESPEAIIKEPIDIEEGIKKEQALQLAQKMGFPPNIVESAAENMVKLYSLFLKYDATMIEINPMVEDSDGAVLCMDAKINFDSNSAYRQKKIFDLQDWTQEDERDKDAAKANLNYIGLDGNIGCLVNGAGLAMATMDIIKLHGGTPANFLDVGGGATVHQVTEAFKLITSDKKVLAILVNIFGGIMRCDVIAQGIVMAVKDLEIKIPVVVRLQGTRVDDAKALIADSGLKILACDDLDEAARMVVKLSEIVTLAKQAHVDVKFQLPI

Assay [2] deals with Casein kinase I isoform alpha (Homo sapiens, UniProt P48729).
Chain of Casein kinase I isoform alpha (P48729 whole entry, canonical isoform): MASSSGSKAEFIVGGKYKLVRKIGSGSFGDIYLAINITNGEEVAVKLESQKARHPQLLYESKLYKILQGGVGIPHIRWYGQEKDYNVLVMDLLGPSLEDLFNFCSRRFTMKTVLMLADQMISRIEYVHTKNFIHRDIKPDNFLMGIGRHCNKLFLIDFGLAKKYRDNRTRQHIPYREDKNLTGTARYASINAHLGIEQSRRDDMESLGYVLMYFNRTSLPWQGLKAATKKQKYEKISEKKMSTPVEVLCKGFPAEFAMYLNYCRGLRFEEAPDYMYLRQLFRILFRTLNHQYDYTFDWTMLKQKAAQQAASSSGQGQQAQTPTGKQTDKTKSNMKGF
Assay [3] has as its target T2, Glycogen phosphorylase, liver form (Homo sapiens, UniProt P06737).
T2 sequence (P06737 whole entry): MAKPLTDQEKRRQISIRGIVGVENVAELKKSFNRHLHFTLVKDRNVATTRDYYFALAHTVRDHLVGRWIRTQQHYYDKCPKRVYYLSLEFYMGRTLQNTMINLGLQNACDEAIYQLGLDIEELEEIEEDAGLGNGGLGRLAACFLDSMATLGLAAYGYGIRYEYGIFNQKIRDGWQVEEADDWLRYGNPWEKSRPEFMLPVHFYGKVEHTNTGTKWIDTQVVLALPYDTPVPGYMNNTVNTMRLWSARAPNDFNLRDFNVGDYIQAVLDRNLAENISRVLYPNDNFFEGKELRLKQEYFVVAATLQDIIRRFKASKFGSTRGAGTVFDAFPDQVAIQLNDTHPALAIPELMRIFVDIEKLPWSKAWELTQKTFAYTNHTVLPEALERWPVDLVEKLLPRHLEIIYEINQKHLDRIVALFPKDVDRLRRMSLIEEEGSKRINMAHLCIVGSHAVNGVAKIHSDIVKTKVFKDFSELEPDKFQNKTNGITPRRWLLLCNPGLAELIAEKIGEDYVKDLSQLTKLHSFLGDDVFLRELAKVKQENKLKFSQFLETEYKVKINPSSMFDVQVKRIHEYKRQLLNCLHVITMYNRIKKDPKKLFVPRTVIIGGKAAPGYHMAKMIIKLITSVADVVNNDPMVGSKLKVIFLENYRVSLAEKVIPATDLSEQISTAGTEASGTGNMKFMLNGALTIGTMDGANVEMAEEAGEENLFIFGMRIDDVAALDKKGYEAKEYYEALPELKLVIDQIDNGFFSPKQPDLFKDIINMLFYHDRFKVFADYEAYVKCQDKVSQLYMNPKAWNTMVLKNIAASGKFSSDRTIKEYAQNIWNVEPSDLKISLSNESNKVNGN
It counts as subcellular, K-562, COLO 205, SK-N-BE(2) and MV-4-11, Cell lysate. To be noted: read-out: Kd apparent.

Assay [4] has as its target T3, Mitogen-activated protein kinase kinase kinase kinase 2 (Homo sapiens, UniProt Q12851).
T3 sequence (Q12851 whole entry): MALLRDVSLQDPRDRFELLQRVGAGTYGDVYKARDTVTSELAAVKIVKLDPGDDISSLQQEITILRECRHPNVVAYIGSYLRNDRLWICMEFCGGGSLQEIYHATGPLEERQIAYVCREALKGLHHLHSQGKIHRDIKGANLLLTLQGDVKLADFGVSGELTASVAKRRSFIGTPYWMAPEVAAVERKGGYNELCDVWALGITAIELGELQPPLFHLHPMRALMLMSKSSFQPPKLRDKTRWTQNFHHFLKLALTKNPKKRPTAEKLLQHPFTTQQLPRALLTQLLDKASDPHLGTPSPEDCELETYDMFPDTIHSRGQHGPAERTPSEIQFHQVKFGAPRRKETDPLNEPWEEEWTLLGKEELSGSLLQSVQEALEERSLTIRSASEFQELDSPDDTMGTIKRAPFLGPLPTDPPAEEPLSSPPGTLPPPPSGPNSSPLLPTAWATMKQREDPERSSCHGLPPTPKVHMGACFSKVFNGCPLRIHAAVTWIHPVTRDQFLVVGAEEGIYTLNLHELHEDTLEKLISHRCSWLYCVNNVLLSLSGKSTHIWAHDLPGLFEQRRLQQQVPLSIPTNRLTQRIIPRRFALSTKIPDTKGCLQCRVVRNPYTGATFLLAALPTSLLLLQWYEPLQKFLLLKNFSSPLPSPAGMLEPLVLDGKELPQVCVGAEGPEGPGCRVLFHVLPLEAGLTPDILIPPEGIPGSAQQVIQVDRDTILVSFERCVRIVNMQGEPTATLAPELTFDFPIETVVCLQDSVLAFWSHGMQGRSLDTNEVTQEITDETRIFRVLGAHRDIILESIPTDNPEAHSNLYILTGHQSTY

Calls of active or inactive are those of the source.
Further: in the data inactive means no Kd found up to 30 µM.

As to `CNC(=O)c1cccc2cc(Oc3ccnc4cc(OCC5(N)CC5)c(OC)cc34)ccc12` [LUCITANIB], the Kd in assay [1], in assay [2], in assay [3] and in assay [4] was > 30 µM (inactive) each time.

As for `CNC(=O)c1nn(C)c2c1C(C)(C)Cc1cnc(Nc3ccc(N4CCN(C)CC4)cc3)nc1-2` [MILCICLIB], the Kd in assay [1] is > 30 µM (inactive); in assay [2] it was 0.995 µM (active); in assay [3] it was > 30 µM (inactive); in assay [4], 14 µM (active).

With `NC1(c2ccc(-c3nc4ccn5c(=O)[nH]nc5c4cc3-c3ccccc3)cc2)CCC1` [MK-2206], the Kd in assay [1], in assay [2], in assay [3] and in assay [4] was > 30 µM (inactive) each time.

On to `CN(C[C@@H]1COCCO1)S(=O)(=O)Nc1ccc2ccc3ncc(-c4cnn(C)c4)cc3c(=O)c2c1` [MK-2461], for which the Kd in assay [1], in assay [2], in assay [3] and in assay [4] was > 30 µM (inactive) in each case.

Consider `Cn1cc(-c2cnc3ccc4ccc(CS(=O)(=O)NCc5ccccn5)cc4c(=O)c3c2)cn1` [MK-8033], for which the Kd in assay [1], in assay [2], in assay [3] and in assay [4] was > 30 µM (inactive) each time.

On to `FC(F)(F)c1ccc(/C=C/c2nc(COc3ccc(CCCCn4ccnn4)cc3)co2)cc1` [MUBRITINIB], for which the Kd in assay [1], in assay [2], in assay [3] and in assay [4] was > 30 µM (inactive) in each case.

Take `COc1ncc(-c2ccc3nccc(-c4ccnnc4)c3c2)cc1NS(=O)(=O)c1ccc(F)cc1F` [OMIPALISIB]: the Kd in assay [1], in assay [2], in assay [3] and in assay [4] was > 30 µM (inactive) throughout.

For `CCOc1cc2ncc(C#N)c(Nc3ccc(F)c(Cl)c3)c2cc1NC(=O)/C=C/CN(C)C` [PELITINIB], the Kd in assay [1] is > 30 µM (inactive); in assay [2], > 30 µM (inactive); in assay [3], > 30 µM (inactive); in assay [4], 2.28 µM (active).

For `CCCCCCCCCCCCCCCCCCOP(=O)([O-])OC1CC[N+](C)(C)CC1` [PERIFOSINE], the Kd in assay [1], in assay [2], in assay [3] and in assay [4] was > 30 µM (inactive) in each case.

Take `Cc1nc(Nc2n[nH]c3c2CN(C(=O)N[C@H](CN(C)C)c2ccccc2)C3(C)C)c2sccc2n1` [PF-03758309]: the Kd in assay [1], in assay [2], in assay [3] and in assay [4] was > 30 µM (inactive) in each case.

In the case of `CNC(=O)c1cc(Oc2ccc(NC(=O)Nc3cc(C(C)(C)C)nn3-c3ccc4ncccc4c3)c(F)c2)ccn1` [REBASTINIB], the Kd is > 30 µM (inactive) in assay [1], > 30 µM (inactive) in assay [2], > 30 µM (inactive) in assay [3] and 1.06 µM (active) in assay [4].

Turning to `N#CC1(c2ccc(NC(=O)c3cccnc3NCc3ccncc3)cc2)CCCC1` [RIVOCERANIB], the Kd in assay [1], in assay [2], in assay [3] and in assay [4] was > 30 µM (inactive) in each case.

Take `O=c1[nH]ccc2cc(OC3CCNCC3)ccc12` [SAR-407899 FREE BASE]: the Kd in assay [1], in assay [2], in assay [3] and in assay [4] was > 30 µM (inactive) in each case.

Turning to `Cn1cc(-c2cnn3c(N)c(Br)c([C@@H]4CCCNC4)nc23)cn1` [SCH-900776], the Kd in assay [1], in assay [2], in assay [3] and in assay [4] was > 30 µM (inactive) in each case.

In the case of `CO[C@H]1C[C@@H]2CC[C@@H](C)[C@@](O)(O2)C(=O)C(=O)N2CCCC[C@H]2C(=O)O[C@H]([C@H](C)C[C@@H]2CC[C@@H](O)[C@H](OC)C2)CC(=O)[C@H](C)/C=C(\C)[C@@H](O)[C@@H](OC)C(=O)[C@H](C)C[C@H](C)/C=C/C=C/C=C/1C` [SIROLIMUS], the Kd in assay [1], in assay [2], in assay [3] and in assay [4] was > 30 µM (inactive) each time.

As for `CCS(=O)(=O)c1cccc(-c2cc(C(=O)NC3CCN(C)CC3)c(C)c3[nH]c4ncc(C)cc4c23)c1` [TAK-901], the Kd in assay [1], in assay [2], in assay [3] and in assay [4] was > 30 µM (inactive) throughout.

Turning to `CO[C@H]1C[C@@H]2CC[C@@H](C)[C@@](O)(O2)C(=O)C(=O)N2CCCC[C@H]2C(=O)O[C@H]([C@H](C)C[C@@H]2CC[C@@H](OC(=O)C(C)(CO)CO)[C@H](OC)C2)CC(=O)[C@H](C)/C=C(\C)[C@@H](O)[C@@H](OC)C(=O)[C@H](C)C[C@H](C)/C=C/C=C/C=C/1C` [TEMSIROLIMUS], the Kd in assay [1], in assay [2], in assay [3] and in assay [4] was > 30 µM (inactive) throughout.

With `COc1cc2c(Nc3ccc(Cl)c(Cl)c3F)ncnc2cc1OC[C@@H]1C[C@@H]2CN(C)C[C@@H]2C1` [TESEVATINIB], the Kd in assay [1], in assay [2], in assay [3] and in assay [4] was > 30 µM (inactive) in each case.

Consider `O=C(Cc1ccc(-c2ccc(OCCN3CCOCC3)cc2)cn1)NCc1ccccc1` [TIRBANIBULIN], for which the Kd in assay [1], in assay [2], in assay [3] and in assay [4] was > 30 µM (inactive) in each case.

Turning to `O=C1NC(=O)[C@@H](c2cn3c4c(cccc24)CCC3)[C@@H]1c1c[nH]c2ccccc12` [TIVANTINIB], the Kd in assay [1], in assay [2], in assay [3] and in assay [4] was > 30 µM (inactive) each time.

Take `C[C@@H](NC(=O)c1ncnc(N)c1Cl)c1ncc(C(=O)Nc2cc(C(F)(F)F)c(Cl)cn2)s1` [TOVORAFENIB]: the Kd in assay [1], in assay [2], in assay [3] and in assay [4] was > 30 µM (inactive) in each case.

For the compound `Cn1ncc(Cl)c1-c1cc(C(=O)N[C@H](CN)Cc2ccc(F)c(F)c2)oc1Cl` [UPROSERTIB], the Kd was > 30 µM (inactive) in assay [1], 1.68 µM (active) in assay [2], > 30 µM (inactive) in assay [3] and > 30 µM (inactive) in assay [4].
